target: T1, recombinant full-length human prolyl endopeptidase (PREP) (Homo sapiens, UniProt P48147); assay: Biochemical human prolyl endopeptidase (PREP) assay with fluorescently labelled substrate; details: substrate Z-Gly-Pro-AMC 50 μM, 32° C., 60 min; some as mean values from multiple independent determinations
T1 construct: To recombinant full-length human prolyl endopeptidase (PREP, R&D-Systems, 4308-SE); purchased R&D-Systems 4308-SE
T1 sequence (P48147 1-710): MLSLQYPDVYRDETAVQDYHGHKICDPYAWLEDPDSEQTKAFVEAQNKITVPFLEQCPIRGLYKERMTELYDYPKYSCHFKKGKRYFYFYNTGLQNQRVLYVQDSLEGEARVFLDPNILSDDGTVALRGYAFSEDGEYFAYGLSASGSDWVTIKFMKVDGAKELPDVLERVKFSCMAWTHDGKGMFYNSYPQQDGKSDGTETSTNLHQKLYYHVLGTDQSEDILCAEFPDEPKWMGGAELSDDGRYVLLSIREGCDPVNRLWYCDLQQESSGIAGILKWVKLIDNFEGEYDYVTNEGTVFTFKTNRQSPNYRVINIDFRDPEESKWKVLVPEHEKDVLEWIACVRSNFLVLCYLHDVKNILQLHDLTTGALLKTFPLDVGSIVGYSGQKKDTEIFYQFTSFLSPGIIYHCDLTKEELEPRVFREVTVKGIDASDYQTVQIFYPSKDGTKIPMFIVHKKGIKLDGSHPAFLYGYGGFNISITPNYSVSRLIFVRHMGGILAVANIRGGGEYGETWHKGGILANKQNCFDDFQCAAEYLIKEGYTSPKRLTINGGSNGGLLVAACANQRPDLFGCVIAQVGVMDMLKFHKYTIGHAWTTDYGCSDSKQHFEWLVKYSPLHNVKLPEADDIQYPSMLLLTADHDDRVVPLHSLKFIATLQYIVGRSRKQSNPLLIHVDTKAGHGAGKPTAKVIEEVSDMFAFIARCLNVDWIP
Method in brief: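 0.4 nM (final, example) recombinant PREP in pH 7.5 Tris buffer with EDTA, GSH, BSA and Brij-35; compounds at 1 nM to 30 μM. Reaction started with 50 μM Z-Gly-Pro-AMC and followed by fluorescence (ex 360/em 465 nm) at 32° C for 60 min. IC50 interpolated from percent activity based on initial slopes.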

IC50 | SMILES
0.2 nM | O=C([C@@H]1CCCc2nn(Cc3ccc(C(F)(F)F)c(Cl)c3)c(=O)n21)N1CC(F)C1 [Example 459, (5S)-2-[3-Chloro-4-(trifluoromethyl)benzyl]-5-[(3-fluoroazetidin-1-yl)carbonyl]-5,6,7,8-tetrahydro[1,2,4]triazolo[4,3-a]pyridin-3(2H)-one]
0.465 nM | O=C([C@@H]1CCCc2nn(Cc3ccc(F)cc3F)c(=O)n21)N1CC(F)C1 [Example 486, (5S)-2-(2,4-Difluorobenzyl)-5-[(3-fluoroazetidin-1-yl)carbonyl]-5,6,7,8-tetrahydro[1,2,4]triazolo[4,3-a]pyridin-3(2H)-one]
1.4 nM | O=C(C1CC(C(F)(F)F)Cc2nn(Cc3ncc(F)cc3Cl)c(=O)n21)N1CC[C@H](F)C1 (single isomer, unassigned) [Example 572]
1.23 nM | Cn1nc(Cn2nc3n(c2=O)[C@H](C(=O)N2CC(F)C2)CCC3)c2cccnc21 [Example 534, (5S)-5-[(3-Fluoroazetidin-1-yl)carbonyl]-2-[(1-methyl-1H-pyrazolo[3,4-b]pyridin-3-yl)methyl]-5,6,7,8-tetrahydro[1,2,4]triazolo[4,3-a]pyridin-3(2H)-one]
2 nM | O=C([C@@H]1CCCc2nn(Cc3ccc(C(F)(F)F)nc3)c(=O)n21)N1CCSC1 [Example 503, (5S)-5-(1,3-Thiazolidin-3-ylcarbonyl)-2-{[6-(trifluoromethyl)pyridin-3-yl]methyl}-5,6,7,8-tetrahydro[1,2,4]triazolo[4,3-a]pyridin-3(2H)-one]
50 nM | O=C(C1CC(C(F)(F)F)Cc2nn(Cc3ccc(C(F)(F)F)nc3)c(=O)n21)N1CC(F)C(F)C1 (single isomer, unassigned) [Example 584]
0.43 nM | O=C([C@@H]1CCC(O)c2nn(Cc3ccc(Cl)cn3)c(=O)n21)N1CC[C@H](F)C1 (mixture of isomers) [Example 547, (5S,8RS)-2-[(5-Chloropyridin-2-yl)methyl]-5-{[(3S)-3-fluoropyrrolidin-1-yl]carbonyl}-8-hydroxy-5,6,7,8-tetrahydro[1,2,4]triazolo[4,3-a]pyridin-3(2H)-one]
14 nM | O=C([C@@H]1CCCc2nn(Cc3ncc(Cl)cc3F)c(=O)n21)N1CC(F)(F)C1 [Example 409, (5S)-2-[(5-Chloro-3-fluoropyridin-2-yl)methyl]-5-[(3,3-difluoroazetidin-1-yl)carbonyl]-5,6,7,8-tetrahydro[1,2,4]triazolo[4,3-a]pyridin-3(2H)-one]

Continued, compound first:

SMILES | IC50
CC1Cc2nn(Cc3ccc(C(F)(F)F)nc3)c(=O)n2C(C(=O)N2C[C@@H](F)[C@@H](F)C2)C1 (single isomer, unassigned) [Example 338] | 1.5 nM
CC1CCC(C(=O)N2CCC(F)(F)C2)n2c1nn(Cc1ccc(F)c(Cl)c1)c2=O (racemic) [Example 323, (5RS,8RS)-2-(3-Chloro-4-fluorobenzyl)-5-[(3,3-difluoropyrrolidin-1-yl)carbonyl]-8-methyl-5,6,7,8-tetrahydro[1,2,4]triazolo[4,3-a]pyridin-3(2H)-one] | 0.96 nM
O=C([C@@H]1CCCc2nn(Cc3cc(C(F)(F)F)ccn3)c(=O)n21)N1CCCC1 [Example 93, (5S)-5-(Pyrrolidin-1-ylcarbonyl)-2-{[4-(trifluoromethyl)pyridin-2-yl]methyl}-5,6,7,8-tetrahydro[1,2,4]triazolo[4,3-a]pyridin-3(2H)-one] | 6 nM
O=C([C@@H]1CCCc2nn(Cc3ccc(F)c(Cl)c3)c(=O)n21)N1CCC2CC21 (single isomer, unassigned) [Example 202] | 19 nM
O=C(C1CCCc2nn(Cc3ccc(C(F)(F)F)c(F)c3)c(=O)n21)N1CCCC1 (racemic) [Example 14] | 0.3 nM
O=C(C1CCc2nn(Cc3ccc(F)c(Cl)c3)c(=O)n21)N1C[C@@H](F)[C@@H](F)C1 (mixture of isomers) [Example 174, (5RS)-2-(3-Chloro-4-fluorobenzyl)-5-{[(3R,4S)-3,4-difluoropyrrolidin-1-yl)carbonyl]-2,5,6,7-tetrahydro-3H-pyrrolo[2,1-c][1,2,4]triazol-3-one] | 1.15 nM
O=C([C@@H]1CCCc2nn(Cc3ncc(Cl)cc3Cl)c(=O)n21)N1CC(F)C1 [Example 398, (5S)-2-[(3,5-Dichloropyridin-2-yl)methyl]-5-[(3-fluoroazetidin-1-yl)carbonyl]-5,6,7,8-tetrahydro[1,2,4]triazolo[4,3-a]pyridin-3(2H)-one] | 1.19 nM
O=C([C@@H]1CCCc2nn(CC3CCC(C(F)(F)F)CC3)c(=O)n21)N1CCCC1 (single isomer, unassigned) [Example 186] | 1.25 nM

tested on: PGP; assay: not given; details: COPD patients treated; cited from earlier work

SMILES | concentration of PGP in the sputum and serum
O=C(Nc1c(Cl)cncc1Cl)c1ccc(OC(F)F)c(OCC2CC2)c1 [roflumilast] | decrease

Reference: patent US10722501B2 (BAYER AKTIENGESELLSCHAFT, priority 2016, dated 2020)
